Measured values taken from article PMC11163866 (Journal of medicinal chemistry, 2024).

Tests used:
[1] = In vitro metabolic stability in human liver microsomes; type: in vitro ADME; conditions: 1 μM; 0.5 mg/mL microsomes; up to 60 min
[2] = In vitro metabolic stability in mouse liver microsomes; type: in vitro ADME; conditions: 1 μM; 0.5 mg/mL microsomes; up to 60 min

| SMILES | metabolic stability (t1/2, min) vs HLM [1] | metabolic stability (t1/2, min) vs MLM [2] |
| --- | --- | --- |
| CCCCCCN/C=C1\N=C(c2ccc[nH]2)C=C1OC.Cl [compound 42] | 17.1 min | 10.2 min |
| COC1=CC(c2ccc[nH]2)=N/C1=C\NC1CCCCCC1.Cl [compound 45] | 52.1 min | 8.20 min |
| COC1=CC(c2ccc[nH]2)=N/C1=C\NCC1CCCCCC1.Cl [compound 46, (Z)-1-Cycloheptyl-N-((4'-methoxy-1H,5'H-[2,2'-bipyrrol]-5'-ylidene)methyl)-methanamine Hydrochloride] | 18.6 min | 12.3 min |
| COC1=CC(c2ccc[nH]2)=N/C1=C\N[C@H]1CC[C@H](C)CC1.Cl [compound 47, (1r,4r)-N-((Z)-(4'-Methoxy-1H,5'H-[2,2'-bipyrrol]-5'-ylidene)methyl)-4-methylcyclohexan-1-amine Hydrochloride] | 17.3 min | 11.4 min |
| COC1=CC(c2ccc[nH]2)=N/C1=C\N[C@H]1CC[C@H](C(F)(F)F)CC1.Cl [compound 48, (1r,4r)-N-((Z)-(4'-Methoxy-1H,5'H-[2,2'-bipyrrol]-5'-ylidene)methyl)-4-(trifluoromethyl)cyclohexan-1-amine Hydrochloride] | 13.0 min | 15.4 min |
| COC1=CC(c2ccc[nH]2)=N/C1=C\Nc1ccc(C)cc1.Cl [compound 52, (Z)-N-((4'-Methoxy-1H,5'H-[2,2'-bipyrrol]-5'-ylidene)methyl)-4-methylaniline Hydrochloride] |  | 28.9 min |
| COC1=CC(c2ccc[nH]2)=N/C1=C\Nc1ccc(OC(F)(F)F)cc1.Cl [compound 54, (Z)-N-((4'-Methoxy-1H,5'H-[2,2'-bipyrrol]-5'-ylidene)methyl)-4-(trifluoromethoxy)aniline Hydrochloride] | > 60.0 min | 45.1 min |
| COC1=CC(c2ccc[nH]2)=N/C1=C\Nc1cccc(Cl)c1.Cl [compound 57, (Z)-3-Chloro-N-((4'-methoxy-1H,5'H-[2,2'-bipyrrol]-5'-ylidene)methyl)aniline Hydrochloride] | > 60.0 min | 42.0 min |
| COC1=CC(c2ccc[nH]2)=N/C1=C\Nc1cccc(OC(F)(F)F)c1.Cl [compound 58, (Z)-N-((4'-Methoxy-1H,5'H-[2,2'-bipyrrol]-5'-ylidene)methyl)-3-(trifluoromethoxy)aniline Hydrochloride] | > 60.0 min | 15.8 min |
| COC1=CC(c2ccc[nH]2)=N/C1=C\Nc1ccc(Cl)c(Cl)c1.Cl [compound 60, (Z)-3,4-Dichloro-N-((4'-methoxy-1H,5'H-[2,2'-bipyrrol]-5'-ylidene)methyl)aniline Hydrochloride] | 56.2 min | 46.7 min |
| COC1=CC(c2ccc[nH]2)=N/C1=C\Nc1ccc(Cl)c(OC)c1.Cl [compound 61, (Z)-4-Chloro-3-methoxy-N-((4'-methoxy-1H,5'H-[2,2'-bipyrrol]-5'-ylidene)methyl)aniline Hydrochloride] | > 60.0 min | > 60.0 min |
| COC1=CC(c2ccc[nH]2)=N/C1=C\Nc1ccc(F)c(OC)c1.Cl [compound 62, (Z)-4-Fluoro-3-methoxy-N-((4'-methoxy-1H,5'H-[2,2'-bipyrrol]-5'-ylidene)methyl)aniline Hydrochloride] | > 60.0 min | 19.1 min |
| COC1=CC(c2ccc[nH]2)=N/C1=C\Nc1ccc2c(c1)OCCO2.Cl [compound 63, (Z)-N-((4'-Methoxy-1H,5'H-[2,2'-bipyrrol]-5'-ylidene)methyl)-2,3-dihydrobenzo[b][1,4]dioxin-6-amine Hydrochloride] | > 60.0 min | 15.8 min |
| Cl.FC(F)(F)Oc1ccc(OC2=CC(c3ccc[nH]3)=N/C2=C\NC23CC4CC(CC(C4)C2)C3)cc1 [compound 70, (3s,5s,7s)-N-((Z)-(4'-(4-(Trifluoromethoxy)phenoxy)-1H,5'H-[2,2'-bipyrrol]-5'-ylidene)methyl)adamantan-1-amine Hydrochloride] | > 60.0 min | > 60.0 min |
| Cl.Fc1cc(F)cc(OC2=CC(c3ccc[nH]3)=N/C2=C\NC23CC4CC(CC(C4)C2)C3)c1 [compound 74, (3s,5s,7s)-N-((Z)-(4'-(3,5-Difluorophenoxy)-1H,5'H-[2,2'-bipyrrol]-5'-ylidene)methyl)adamantan-1-amine Hydrochloride] | > 60.0 min | > 60.0 min |
| Cl.Clc1ccc(OC2=CC(c3ccc[nH]3)=N/C2=C\NC23CC4CC(CC(C4)C2)C3)cc1 [compound 77, (3s,5s,7s)-N-((Z)-(4'-(4-Chlorophenoxy)-1H,5'H-[2,2'-bipyrrol]-5'-ylidene)methyl)adamantan-1-amine Hydrochloride] | > 60 min | > 60 min |
| Cl.FC(F)(F)Oc1ccc(C2=CC(c3ccc[nH]3)=N/C2=C\NC23CC4CC(CC(C4)C2)C3)cc1 [compound 80, (3s,5s,7s)-N-((Z)-(4'-(4-(Trifluoromethoxy)phenyl)-1H,5'H-[2,2'-bipyrrol]-5'-ylidene)methyl)adamantan-1-amine Hydrochloride] | > 60.0 min | > 60.0 min |
| CC1=C/C(=C\NC23CC4CC(CC(C4)C2)C3)N=C1c1ccc[nH]1.Cl [compound 88] | > 60.0 min | 17.6 min |
| CC1=C(C)/C(=C/NC2CCCCCC2)N=C1c1ccc[nH]1.Cl [compound 90] | 45.1 min | 11.2 min |
| C(/NC1CCCCCC1)=C1/N=C(c2ccc[nH]2)C2=C1CCCC2.Cl [compound 102] | > 60.0 min | 9.71 min |
| C(/NCC1CCCCCC1)=C1/N=C(c2ccc[nH]2)C2=C1CCCC2.Cl [compound 104, (Z)-1-(3-(1H-Pyrrol-2-yl)-4,5,6,7-tetrahydro-1H-isoindol-1-ylidene)-N-(cycloheptylmethyl)methanamine Hydrochloride] | > 60.0 min | > 60.0 min |
| Cc1ccc(N/C=C2\N=C(c3ccc[nH]3)C3=C2CCCC3)cc1.Cl [compound 105, (Z)-N-((3-(1H-Pyrrol-2-yl)-4,5,6,7-tetrahydro-1H-isoindol-1-ylidene)methyl)-4-methylaniline Hydrochloride] | 42.1 min | 31.2 min |
| CCc1c[nH]c(C2=N/C(=C\NC3CCCCCC3)C(C)=C2C)c1.Cl [compound 113, (Z)-N-((4-Ethyl-3',4'-dimethyl-1H,5'H-[2,2'-bipyrrol]-5'-ylidene)methyl)cycloheptanamine Hydrochloride] | > 60.0 min |  |
